Results from PubChem BioAssay (NCI).
“And” between values parts separate entries of the source, which are not always exact repeats. Equal entries are not always repeated.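 1) Cells in 96-well plates. 2) Compound, 48 h, 5 concentrations. 3) Linear interpolation between surrounding doses. 4) Unreached endpoint = highest concentration. GI50 = concentration required for 50% inhibition of growth. TGI: concentration producing complete growth inhibition.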

Key:
Experiment in all cases: inhibition of tumour cell growth, NCI panel, 48 h
[1] = tested on: UO-31 renal
[2] = tested on: SNB-75 CNS
[3] = tested on: SR leukemia
[4] = tested on: HT29 colon
[5] = tested on: MALME-3M melanoma
[6] = tested on: NCI-H23 lung
[7] = tested on: IGROV1 ovarian
[8] = tested on: SK-MEL-5 melanoma
[9] = tested on: UACC-62 melanoma
[10] = tested on: OVCAR-5 ovarian

Compound	GI50 [1]	TGI [1]	GI50 [2]	TGI [2]	GI50 [3]	TGI [3]	GI50 [4]	TGI [4]	GI50 [5]	TGI [5]	GI50 [6]	TGI [6]	GI50 [7]	TGI [7]	GI50 [8]	TGI [8]	GI50 [9]	TGI [9]	GI50 [10]	TGI [10]
Cc1ccc(/C=N\NC(=O)c2[nH]c3ccc(F)cc3c2-c2ccccc2)cc1	0.0472 µM	> 46 µM	0.0382 µM	16.6 µM	0.0323 µM	> 64.2 µM	0.0291 µM	11.6 µM	0.0572 µM	> 80.9 µM	0.0374 µM	> 43.8 µM	0.0336 µM	10.7 µM	0.0224 µM	0.0559 µM	0.0516 µM	> 58.6 µM	0.0591 µM	> 100 µM
N#CC(C#N)=C1NC(=O)CC(=O)N1		> 100 µM		> 100 µM		> 100 µM		> 100 µM		> 100 µM		> 100 µM		> 100 µM		> 100 µM		> 100 µM		> 100 µM
O=C(Nc1ccc(OCc2nnc(-c3ccc(Cl)cc3)o2)c(F)c1)Nc1ccc(Cl)c(C(F)(F)F)c1	1.52 µM	4.1 µM	1.44 µM	6.29 µM	1.85 µM	4.9 µM	2.29 µM	5.69 µM	2.4 µM	6.33 µM	2.36 µM	7.38 µM	2.9 µM	10.5 µM	2.01 µM	4.42 µM	1.54 µM	4.21 µM	3.66 µM	17.6 µM
CN[C@@H](C)C(=O)N[C@H](C(=O)N1CCC[C@H]1C(=O)Nc1sc(-c2ncco2)nc1-c1ccccc1)C1CCCCC1	32.1 µM	> 68.9 µM	12.2 µM	65.4 µM	14 µM	54.7 µM	28.6 µM	68.6 µM	3.91 µM	19.4 µM	25.8 µM	> 100 µM	47.5 µM	> 100 µM	9.93 µM	24 µM	18.6 µM	39.2 µM	38 µM	> 64.6 µM
O=C1CCC(N2Cc3cc(CNC(=O)C(F)(F)c4ccc(Cl)cc4)ccc3C2=O)C(=O)N1 (stereo not drawn)	0.32 µM	> 100 µM	0.152 µM	> 100 µM	54.1 µM	> 100 µM	> 100 µM	> 100 µM	0.105 µM	> 27.9 µM	> 100 µM	> 100 µM	1.78 µM	> 100 µM	41.6 µM	> 100 µM	> 100 µM	> 100 µM	> 100 µM	> 100 µM
COc1cc(C(=O)C/C(CCC(=O)Nc2ccccc2[N+](=O)[O-])=N\NC(N)=O)ccc1O		> 100 µM		> 100 µM		> 100 µM		> 100 µM		> 100 µM		> 100 µM		> 100 µM		> 100 µM		> 100 µM		> 100 µM
O=C1OCC2=C1C(c1ccccc1)c1cc3c(cc1N2)OCO3 (stereo not drawn)	0.332 µM	> 100 µM	0.0201 µM	1.16 µM	< 0.0115 µM		0.0351 µM	> 59 µM	14.1 µM	> 100 µM	0.0449 µM	> 100 µM	0.0816 µM	50.2 µM	0.0336 µM	0.234 µM	0.0328 µM	> 100 µM	0.0829 µM	> 100 µM
CC/C=C\C/C=C\C/C=C\CCCCCCCC(=O)OCC(O)CO (stereo not drawn)		24.6 µM		> 100 µM		> 100 µM		> 100 µM		> 100 µM		> 100 µM		> 100 µM		> 100 µM		> 100 µM		> 100 µM
Nc1nc(OCc2ccccc2)c2[nH]cnc2n1	17.1 µM	82 µM and 82.2 µM	13.9 µM	67.3 µM and 86.1 µM	36.6 µM		45.8 µM and 39.9 µM	400 µM and 175 µM	28 µM and 23.3 µM	264 µM and 136 µM	31.6 µM and 46.9 µM	326 µM and 229 µM	25.3 µM and 9.01 µM	93.3 µM and 271 µM and 34.4 µM	34.5 µM and 35.4 µM	193 µM and 149 µM	25 µM and 17.3 µM	128 µM and 90.7 µM	52.7 µM and 42.6 µM	241 µM and 240 µM
CCCN(CCS(C)(=O)=O)Cc1ccc(-c2ccc3ncnc(Nc4ccc(OCc5cccc(F)c5)c(Cl)c4)c3c2)o1	5.12 µM	> 25 µM	> 25 µM	> 25 µM	> 20.9 µM	> 25 µM	> 25 µM	> 25 µM	> 25 µM	> 25 µM	> 25 µM	> 25 µM	16.5 µM	> 25 µM	> 14.1 µM	> 25 µM	> 25 µM	> 25 µM	> 25 µM	> 25 µM
N#CC(=C1C=CC(=NO)C=C1)c1ccc(Cl)cc1		31.7 µM		> 100 µM		43.5 µM		22.9 µM		60.7 µM		75.3 µM		56.1 µM		21.3 µM		21 µM		28.8 µM
